Series [1] has as its system granulation tissue in wound chamber. The experiment in a line: in vivo wound chamber model. The arrangement: species or system rat. To be noted: injected into chamber daily, day 7-14 treatment; for response vs control in vivo at 0.01 mg / response vs control in vivo at 0.05 mg: Rattus norvegicus, read-out: Mean Collagen content (% of Control) On Day 14. Here is the method: (e) An in vivo wound chamber model involving the measurement of histological changes in granulation tissue. The test compounds were tested in rats according to the procedures generally described in Schilling et al., Surgery 46(4):702-710 (1959), Hunt et al., Am. J. Surgery 114:302-307 (1967), and Grotendorst et al., J. Clin Inves. 76:2323-2329 (1985). More specifically, stainless wire mesh cylinders were implanted subcutaneously under the back skin of rats (two chambers per animal). The compounds of the present invention were then dissolved in DMSO and injected into each chamber on a daily basis at various concentrations from either day 0-14 or day 7-14. On day 14, the chambers were collected and the granulation tissues contained within the chambers were collected for biochemical (collagen content) or histological evaluation.
Following the in vivo wound chamber model described above, fourteen of the claimed compounds tested to determine the effectiveness of the claimed compounds in inhibiting collagen deposition in the wound chamber.

The record followed here is patent US20010001101A1, “Phenanthroline derivatives” (Zeneca Limited, priority 1997, published 2001).

The structures appear in SMILES notation.

As to `CCCN(CC)C(=O)c1cnc2c3c(ccc2c1)C(=O)C([N+](=O)[O-])C=N3` (stereo not shown) [Compound 6, 3-nitro-8-(N-ethyl-N-propylcarbamoyl)-4-oxo-3,4-dihydro-1,10-phenanthroline], in series [1] (10 μg dosage), the response vs control in vivo at 0.01 mg stood at 58.8%. Besides, in series [1] (50 μg dosage), the response vs control in vivo at 0.05 mg came to 51.1%.
The corresponding values for `O=C(O)C1C=Nc2c(ccc3cc(O)cnc23)C1=O` (stereo not shown) [Compound 7, 3-carboxy-8-hydroxy-4-oxo-3,4-dihydro-1,10-phenanthroline] are 81.9% and 74.5%.
In the same order, the values of `N#CC1C=Nc2c(ccc3cccnc23)C1=O` (stereo not shown) [Compound 1, 3-cyano-4-oxo-3,4-dihydro-1,10-phenanthroline] are 110% and 112%.
`O=C1c2ccc3cccnc3c2N=CC1S(=O)(=O)CC(F)(F)F` (stereo not shown) [Example VI, 3-(2,2,2-trifluoroethyl-sulfonyl)-4-oxo-3,4-dihydro-1,10-phenanthroline] yielded a melting point of 272 to 274 °C.
On to `O=C1c2ccc3cc(C(=O)N4CCN(Cc5ccccc5)CC4)cnc3c2N=CC1[N+](=O)[O-]` (stereo not shown) [Compound 10, 3-nitro-8-(4-benzylpiperazine-ylcarbonyl)-4-oxo-3,4-dihydro-1,10-phenanthroline], for which the “Mean Collagen content (% of Control) On Day 14” value in series [1] (10 μg dosage) was 94.81 % of Control; in series [1] (50 μg dosage), 76.54 % of Control.
With `CN(Cc1ccccc1)C(=O)c1cnc2c3c(c(F)cc2c1)C(=O)C(C#N)C=N3` (stereo not shown) [Example IX, 8-(N-benzyl-N-methylcarbamoyl)-3-cyano-5-fluoro-4-oxo-3,4-dihydro-1,10-phenanthroline], the melting point was in the range of 267 to 269 °C.
Consider `CN(Cc1ccc(F)cc1F)C(=O)c1cnc2c3c(ccc2c1)C(=O)C(C(=O)O)C=N3` (stereo not shown) [Compound 3, 3-carboxy-8-(N-methyl-N-{2,4-difluorobenzyl}carbamoyl)-4-oxo-3,4-dihydro-1,10-phenanthroline], for which, in series [1] (10 μg dosage), the response vs control in vivo at 0.01 mg worked out at 108%. For the same compound, the response vs control in vivo at 0.05 mg in series [1] (50 μg dosage) came to 79.8%.
In the same order, the values of `O=C(O)C1C=Nc2c(cc(Cl)c3cccnc23)C1=O` (stereo not shown) [Compound 9, 3-carboxy-6-chloro-4-oxo-3,4-dihydro-1,10-phenanthroline] are 80.3% and 79.9%.
For the compound `O=C(OCCN1CCOCC1)C1C=Nc2c(ccc3cccnc23)C1=O` (stereo not shown) [Compound 13, 3-(2-{morpholino}ethoxycarbonyl)-4-oxo-3,4-dihydro-1,10-phenanthroline], the response vs control in vivo at 0.01 mg in series [1] (10 μg dosage) came out at 95.5%. The response vs control in vivo at 0.05 mg in series [1] (50 μg dosage) is 84.3%.
With `O=C(O)C1C=Nc2c(c(Cl)cc3cccnc23)C1=O` (stereo not shown) [Compound 2, 5-chloro-3-carboxy-4-oxo-3,4-dihydro-1,10-phenanthroline], in series [1] (10 μg dosage), the response vs control in vivo at 0.01 mg was 91.7%. In addition, the response vs control in vivo at 0.05 mg in series [1] (50 μg dosage) is 82.7%.
In turn, `CN(Cc1ccc(F)cc1)C(=O)c1cnc2c3c(ccc2c1)C(=O)C([N+](=O)[O-])C=N3` (stereo not shown) [Example VII, 8-[N-(4-fluorobenzyl)-N-methylcarbamoyl]-3-nitro-4-oxo-3,4-dihydro-1,10-phenanthroline] gave a melting point of 294 to 296 °C.
Turning to `Cc1cc2cc(C(=O)N(C)Cc3ccccc3)cnc2c2c1C(=O)C(C(=O)O)C=N2` (stereo not shown) [Compound 5, 3-carboxy-8-(N-benzyl-N-methylcarbamoyl)-5-methyl-4-oxo-3,4-dihydro-1,10-phenanthroline], in series [1] (10 μg dosage), the response vs control in vivo at 0.01 mg was 99.1%. For the same compound, in series [1] (50 μg dosage), the response vs control in vivo at 0.05 mg worked out at 80.9%.
Turning to `CN(Cc1ccccc1)C(=O)c1cnc2c3c(ccc2c1)C(=O)C(C#N)C=N3` (stereo not shown) [Compound 4, 3-cyano-8-(N-benzyl-N-methylcarbamoyl)-4-oxo-3,4-dihydro-1,10-phenanthroline], the response vs control in vivo at 0.01 mg in series [1] (10 μg dosage) was 81.1%. The response vs control in vivo at 0.05 mg in series [1] (50 μg dosage) amounted to 66%.
The corresponding values for `O=C1c2ccc3cccnc3c2N=CC1S(=O)(=O)C(F)(F)F` (stereo not shown) [Compound 11, 3-trifluoromethylsulfonyl-4-oxo-3,4-dihydro-1,10-phenanthroline] are 90.8% and 80.8%.

What is called melting point is the temperature, or range, at which the solid turns liquid.
